# Results from patent US20230218663A1, “COMPOSITIONS AND METHODS FOR TREATING A SARS-COV-2 INFECTION” (priority 2020, published 2023).
# Several values for one entry are separate records, joined by “and”; a condition that tells them apart may be missing. Equal entries are not always repeated. Where two headings read alike, the source gives them in different places.
# Tests used:
# SARS-CoV-2 [1] = type: cell-based
# [2] = cited from earlier work
# [3] = Ex vivo everted gut sac model; type: in vitro ADME, rat
# Protocol: Ex vivo everted gut sac model was performed according to a modified method (10, 11). For the preparation of everted gut sac, small intestines were rapidly isolated from rats right after their sacrificing followed by being washed several times with 0.9% saline. Duodenum was segmented of the intestine (˜4 cm) in oxygenated medium [Krebs-Henseleit solution (pH 7.4, 1.25 mM NaHCO3, pH 7.4, 5.9 mM NaCl, 23.5 μM KCl, 60 μM MgSO4, 62.5 μM CaCl2, 60 μM KH2PO4, 550 μM glucose)], gently everted, washed, slid onto a glass rod and fastened with braided silk. Duodenum was clamped at one end and filled with an aliquot of 1 mL fresh oxygenated medium, and subsequently sealed with a second clamp, resulting an everted gut sac with approximately 3 cm in length using braided silk sutures.
# The everted gut sacs (n=3 per group) were dialyzed in oxygenated medium supplemented with CBS (200 μM), CBS (200 μM)+1NAC (200 μM), CBS (200 μM)+3NAC (600 μM), CBS (200 μM)+10NAC (2 mM), respectively, at 37° C. Aliquots of 50 μL samples were withdrawn from the gut sacs at different time intervals (15, 30, 45, 60 min) and equal volume of oxygenated medium was supplemented in gut sacs immediately. The length and width of each intestinal segment was measured after the final sample was taken. Bismuth content transported into the gut sacs was measured by ICP-MS as mentioned above.
# SARS-CoV-2 [4] = type: cell-based; conditions: read-out: EC50 VeroE6
# SARS-CoV-2 [5] = type: cell-based; remark: listed apart in the source
# SARS-CoV-2 [6] = test: Golden Syrian hamster model, oral treatment (NAC studies); type: in vivo; conditions: hamster, in vivo
# [7] = In vivo pharmacokinetics and biodistribution in SD rats; parameters: species or system Sprague Dawley rats
# Protocol: For the measurement of detailed pharmacokinetics profiles of the optimal NAC combination with CBS identified from the above mice study, rats received a minor surgery of cannulation one day prior to experiment, with a polythene tube (i.d.0.4 mm×o.d. 0.8 mm, Harvard Apparatus, USA) in the left jugular vein, followed by an overnight recovery and fasting. Two group of rats (n=5 per group) were orally administrated with 1-mL aliquot of CBS (150 mg/kg) or CBS (150 mg/kg)+10NAC (610 mg/kg). About 200 μL of rat blood were collected via the jugular vein cannula into a heparinized centrifuge tube at 0.17, 0.33, 0.5, 1, 2, 4, 6, 8, 12, 24-hour post drug administration for respective group. Rats were allowed for free access to food 12 h after drug administrations. All the rats were sacrificed 24-hour post dosing followed by cardiac perfusion with 200-mL saline to collect major organs including spleen, liver, lung, kidney and brain for further analyses. For the digestion of tissues, a modified protocol from US EPA 3050B (USEPA, 1996) was used. Briefly, approximate 0.2˜0.3 g of the respective rat organ samples was placed in 15 ml polypropylene tubes and digested with 1 mL of 69% HNO3 at 65° C. for 16 h, while 100 μL of rat blood was digested with equal volume of 69% HNO3 at 65° C. for 16 h. After being cooled down to room temperature, the samples were diluted to 1% nitric acid to the final volume of 3 mL for further use. To eliminate matrix effect, blood and organs were also collected from untreated rats and digested under identical condition serving as blank control. Standard solutions were prepared by diluting multielement calibration standard of bismuth in the respective blank control of organ and blood, respectively. The bismuth content in each organ or blood sample was then measured by ICP-MS and calculated according to the standard curve in respective blank control. Pharmacokinetic parameters including the peak concentration (Cmax), the area under the concentration-time curve (AUC), the time reaching Cmax (Tmax) were determined through noncompartmental analysis with Phoenix WinNonlin version 6.4 (Pharsight Corporation, Mountain View, Calif., USA).
# VeroE6 cells = test: Cell viability assay (CellTiterGlo), VeroE6; type: cell-based, African green monkey; conditions: 48 hrs incubation; concentration based on metal content; read-out: CC50 VeroE6
# Protocol: The CellTiterGlo® luminescent assay (Promega Corporation, Madison, Wis., USA) was performed to detect the cytotoxicity of the selected compounds as previously described^39. Briefly, VeroE6 cells (4×10^4 cells per well) and Caco2 cells (4×10^4 cells per well) were incubated with different concentrations of the individual compound in 96-well plates for 48 hrs, followed by the addition of the substrate and measurement of luminance 10 min later. Ridaura and Au(PEt3)Cl were dissolved in DMSO, and the final percentage of DMSO was kept at 1% in culture medium.
# [8] = oral, CBS 150 mg/kg, NAC 610 mg/kg, bismuth
# [9] = oral, CBS 150 mg/kg, NAC 610 mg/kg, bismuth, listed as CBS
substance,measurement,setting,value
Colloidal Bismuth Subcitrate [De-Nol],viral NP antigen-positive cells,SARS-CoV-2 [1],37.25%
same,optimum pH for precipitation,[2]; gastric juice,3.5
same,solubility,[2]; water,soluble in water
same,cumulative bismuth permeated within 60 min,[3]; CBS 200 μM with 1 mol eq. NAC,30.21 ng/cm2
same,cumulative bismuth permeated within 60 min,[3]; CBS 200 μM with 3 mol eq. NAC,64.98 ng/cm2
same,cumulative bismuth permeated within 60 min,[3]; CBS 200 μM with 10 mol eq. NAC,98.61 ng/cm2
same,cumulative bismuth permeated within 60 min,"[3]; CBS 200 μM, without NAC",14.68 ng/cm2
same,EC50,SARS-CoV-2 [4],0.0046 ± 0.0004 mM
same,"effect on virus replication, drug maintained after virus entry (post-entry)",SARS-CoV-2 [5],functioned at post-entry stages
same,adverse clinical signs and symptoms,SARS-CoV-2 [6],mildly mitigated
same,pulmonary viral load compared with vehicle group,SARS-CoV-2 [6],No statistically significant difference
same,change in lung IL-6 level versus vehicle group,SARS-CoV-2 [6]; po,lowered but statistically non-significant change
same,bismuth accumulation in kidney,[7]; 24 hours after oral dose,6839.76 ng per tissue
same,bismuth accumulation in lung,[7]; 24 hours after oral dose,552.15 ng per tissue
same,first peak value of blood bismuth level,"[7]; at around 0.5 h, single oral dose CBS 150 mg/kg",277.69 µg/L
same,AUC0→24 h (±SD),[7]; [8],2324.20 (±759.76) h · μg/L
same,Cmax (±SD),[7]; [8],447.06 ng/mL
same,AUC0→12 h (±SD),[7]; [9],1316 h · μg/L and 1316.94 (±474.00) h · μg/L
same,Tmax (±SD),[7]; [9],4 h and 2.53(±2.01) h
same,cumulative permeated bismuth,"PBS iso-pH 1.2, in the presence of 10 mol eq. NAC",24.91 ng/cm2
same,cumulative permeated bismuth,"PBS iso-pH 1.2, without NAC",16.95 ng/cm2
same,CC50,VeroE6 cells,3.254 ± 0.021 mM
